Counter-ions that a name gives are not always drawn.
Tested on: ocular tension
Assay: Ocular tension-reducing activity by administration to anterior chamber
Assay type: in vivo, rabbit
Details: overall conclusion from Examples 1 to 4
Description: Test solutions 1 to 3 were prepared as mentioned below. […] Non-white 5 male rabbits were used. Ocular tension was measured under topically anesthetizing the corneal surface with 0.4% oxybuprocaine hydrochloride by using an air impression electronic tonometer (by Japan Alcon Company). The rabbit was fitted in a cylinder, after topically anesthetizing the corneal surface with 0.4% oxybuprocaine hydrochloride, and the test solution 10 μl was injected via cornea in anterior chamber of one eye with an injection needle (30G). To the other eye as a control eye, in the same way as mentioned above, a physiological saline was injected. Ocular tension just before and after injection of the test solution or the physiological saline was measured in accordance with the same method as mentioned above. […] Ocular tension just before and after injection of the test solution and the physiological saline was measured in accordance with the same method as mentioned in Example 1.

SMILES	ocular tension-reducing activity (summary in words)
O=C1[C@H]2CCCC[C@H]2C(=O)N1CCCCN1CCN(c2nsc3ccccc23)CC1 [perospirone hydrochloride hydrate]	have ocular tension-reducing activity
O=C(O)CC(O)(CC(=O)O)C(=O)O.O=C1[C@@H]2[C@@H]3CC[C@@H](C3)[C@@H]2C(=O)N1CCCCN1CCN(c2ncccn2)CC1 [tandospirone citrate]	have ocular tension-reducing activity

Reference: patent US20060160818A1, “Ocular hypotensive agent” (priority 2003, published 2006)
